# Columns and labels:
# [1] = test system: SK-OV-3; assay: Cell viability panel, CyQUANT Direct; assay type: cell-based; conditions: Homo sapiens, Ovarian, 48 hours, read-out: Compound EC50
# Description: (§1) Cell viability panel studies. Cells were diluted in the corresponding ATCC recommended medium and dispensed in a 384-well plate, depending on the cell line used, at a density of 200-6400 cells per well. For each used cell line, the optimal cell density was used. Compound was serially diluted and 8 concentration (0.04-32 μM) were added to the cells for 72 h exposure. At t=end, of ATPlite 1Step™ (PerkinElmer) were used to calculate cell viability. Cell lines marked with asterisk were seeded 24 h prior to treatment in 96-well plates at the density range of 5,000-40,000 cells/well, according to duplication rate, in RPMI 1640 medium containing 10% fetal bovine serum and 2 mM L-glutamine. Compounds were diluted from 10 mM DMSO stock and treatment was applied at the range of 0.04-1 μM. Following incubation at 37° C. for 48 hours with increasing concentrations of the compounds, viability was determined with CyQUANT® Direct Assay Kit (Invitrogen). Output intensities were normalized to values after treatment with DMSO alone, and EC50 values were calculated using the absorbance measurements [time zero, (Tz), growth control, (C), plus the test growth at the four drug concentration levels (Ti)] as follows: [(Ti−Tz)/(C−Tz)]×100 for concentrations for which Ti>/=Tz; [(Ti−Tz)/Tz]×100 for concentrations for which Ti−<Tz.
# [2] = test system: EKVX; assay: Cell viability panel, CyQUANT Direct; assay type: cell-based; conditions: Homo sapiens, Lung cancer, 48 hours, read-out: Compound EC50
# Description: as §1
# [3] = test system: SNB-19; assay: Cell viability panel, CyQUANT Direct; assay type: cell-based; conditions: Homo sapiens, CNS, 48 hours, read-out: Compound EC50
# Description: as §1
# [4] = test system: SK-MEL-28; assay: Cell viability panel, CyQUANT Direct; assay type: cell-based; conditions: Homo sapiens, Melanoma, 48 hours, read-out: Compound EC50
# Description: as §1
# [5] = test system: RXF-393; assay: Cell viability panel, CyQUANT Direct; assay type: cell-based; conditions: Homo sapiens, Renal cancer, 48 hours, read-out: Compound EC50
# Description: as §1
# [6] = test system: HCC-2998; assay: Cell viability panel, CyQUANT Direct; assay type: cell-based; conditions: Homo sapiens, Colon cancer, 48 hours, read-out: Compound EC50
# Description: as §1
# [7] = test system: OVCAR-4; assay: Cell viability panel, CyQUANT Direct; assay type: cell-based; conditions: Homo sapiens, Ovarian Cancer, 48 hours, read-out: Compound EC50
# Description: as §1
# [8] = test system: KM-12; assay: Cell viability panel, CyQUANT Direct; assay type: cell-based; conditions: Homo sapiens, KM12, Colon cancer, 48 hours, read-out: Compound EC50
# Description: as §1
# [9] = test system: SN12C; assay: Cell viability panel, CyQUANT Direct; assay type: cell-based; conditions: Homo sapiens, Renal cancer, 48 hours, read-out: Compound EC50
# Description: as §1
# [10] = test system: IGR-OV1; assay: Cell viability panel, CyQUANT Direct; assay type: cell-based; conditions: Homo sapiens, IGROV-1, Ovarian cancer, 48 hours, read-out: Compound EC50
# Description: as §1
# [11] = test system: UO-31; assay: Cell viability panel, CyQUANT Direct; assay type: cell-based; conditions: Homo sapiens, Renal cancer, 48 hours, read-out: Compound EC50
# Description: as §1
# [12] = test system: HOP-92; assay: Cell viability panel, CyQUANT Direct; assay type: cell-based; conditions: Homo sapiens, Lung cancer, 48 hours, read-out: Compound EC50
# Description: as §1
# [13] = test system: U251; assay: Cell viability panel, CyQUANT Direct; assay type: cell-based; conditions: Homo sapiens, U-251, CNS, 48 hours, read-out: Compound EC50
# Description: as §1
# [14] = test system: MDA-MB-435; assay: Cell viability panel, CyQUANT Direct; assay type: cell-based; conditions: Homo sapiens, Melanoma, 48 hours, read-out: Compound EC50
# Description: as §1
# [15] = test system: SNB-75; assay: Cell viability panel, CyQUANT Direct; assay type: cell-based; conditions: Homo sapiens, CNS, 48 hours, read-out: Compound EC50
# Description: as §1
# [16] = test system: CAKI-1; assay: Cell viability panel, CyQUANT Direct; assay type: cell-based; conditions: Homo sapiens, Renal cancer, 48 hours, read-out: Compound EC50
# Description: as §1
# [17] = test system: M14; assay: Cell viability panel, CyQUANT Direct; assay type: cell-based; conditions: Homo sapiens, Melanoma, 48 hours, read-out: Compound EC50
# Description: as §1
# [18] = test system: LOX IMVI; assay: Cell viability panel, CyQUANT Direct; assay type: cell-based; conditions: Homo sapiens, Melanoma, 48 hours, read-out: Compound EC50
# Description: as §1
# [19] = test system: NCI-H23; assay: Cell viability panel, CyQUANT Direct; assay type: cell-based; conditions: Homo sapiens, Lung cancer, 48 hours, read-out: Compound EC50
# Description: as §1
# [20] = test system: SK-MEL-2; assay: Cell viability panel, CyQUANT Direct; assay type: cell-based; conditions: Homo sapiens, Melanoma, 48 hours, read-out: Compound EC50
# Description: as §1
# [21] = test system: MDA-MB-231; assay: Cell viability panel, CyQUANT Direct; assay type: cell-based; conditions: Homo sapiens, Breast Cancer, 48 hours, read-out: Compound EC50
# Description: as §1
# [22] = test system: TK-10; assay: Cell viability panel, CyQUANT Direct; assay type: cell-based; conditions: Homo sapiens, Renal cancer, 48 hours, read-out: Compound EC50
# Description: as §1
# [23] = test system: UACC-257; assay: Cell viability panel, CyQUANT Direct; assay type: cell-based; conditions: Homo sapiens, Melanoma, 48 hours, read-out: Compound EC50
# Description: as §1
# [24] = test system: SK-MEL-5; assay: Cell viability panel, CyQUANT Direct; assay type: cell-based; conditions: Homo sapiens, Melanoma, 48 hours, read-out: Compound EC50
# Description: as §1
# [25] = test system: OVCAR-5; assay: Cell viability panel, CyQUANT Direct; assay type: cell-based; conditions: Homo sapiens, Ovarian Cancer, 48 hours, read-out: Compound EC50
# Description: as §1
# [26] = test system: SW620 xenograft; assay: SW620 colorectal flank xenograft in nude mice; assay type: in vivo; conditions: 8 mg/kg IV, TIW for 21 days
# Excerpt: FIG. 6A-6D show the evaluated in-vivo efficacy of Compound AA in a colorectal mouse flank xenograft models (HCT116, SW620). […] HCT-116 or SW620 cells (5×10^6 cells/mouse) were implanted in the rear flank of mail mice (6 weeks of age at the time of tumor implantation). On Day 20-23, mice were randomized for equivalent distribution of tumor volumes to treatment groups (n=5/group) and treated IV with vehicle, Compound AA (FIG. 6A, FIG. 6B) TIW for 21 days. Data are presented as mean tumor volume±SD. Body weight % changes in treated animals observed at end point (FIG. 6C, FIG. 6D). Animal xenograft models. MM1.S, HCT-116, SW620 cell lines were purchased from ATCC and used for xenograft model. The cells were cultured in RPMI medium (Sigma-Aldrich) supplemented with 10% fetal bovine serum (FBS) and divided for up to 5 passages. Shortly prior to injection, cell suspension was mixed with Matrigel at 1:[…]) and injected subcutaneously to the rear flank area of male nude athymic 6 weeks old mice to obtain administration of 5×10^6 cells/animal. On day 20-23, when tumor volume reached 100-150 mm^3, mice were randomized for equivalent distribution of tumor volumes to treatment groups (n=5/group) and treated via intravenous injection.
# [27] = test system: OVCAR-4; assay: NCI60 screen cytotoxicity; assay type: cell-based; conditions: Homo sapiens, Ovarian cancer, read-out: Compound B1 EC50
# [28] = test system: NCI-H522; assay: NCI60 screen cytotoxicity; assay type: cell-based; conditions: Homo sapiens, Lung cancer, read-out: Compound B1 EC50
smiles,measurement,setting,value
CN(C)CCCS(=O)(=O)N1C/C(=C\c2ccc(C#N)cc2)C(=O)/C(=C/c2ccc(C#N)cc2)C1 [Compound AA],EC50,[1],< 300 nM
same,EC50,[2],300 to 1000 nM
same,EC50,[3],< 300 nM
same,EC50,[4],< 300 nM
same,EC50,[5],≥ 1000 nM
same,EC50,[6],300 to 1000 nM
same,EC50,[7],300 to 1000 nM
same,EC50,[8],< 300 nM
same,EC50,[9],< 300 nM
same,EC50,[10],< 300 nM
same,EC50,[11],300 to 1000 nM
same,EC50,[12],300 to 1000 nM
same,EC50,[13],< 300 nM
same,EC50,[14],< 300 nM
same,EC50,[15],300 to 1000 nM
same,EC50,[16],≥ 1000 nM
same,EC50,[17],< 300 nM
same,EC50,[18],< 300 nM
same,EC50,[19],300 to 1000 nM
same,EC50,[20],< 300 nM
same,EC50,[21],< 300 nM
same,EC50,[22],300 to 1000 nM
same,EC50,[23],300 to 1000 nM
same,EC50,[24],< 300 nM
same,EC50,[25],< 300 nM
same,Animal body weight,[26],not considerably affected
same,tumor growth compared to vehicle control,[26],significantly inhibited tumor growth
CN(C)CC(=O)NCC(=O)N1C/C(=C\c2ccc(C#N)cc2)C(=O)/C(=C/c2ccc(C#N)cc2)C1 [Compound B1],EC50,[27],300 to 1000 nM
same,EC50,[28],< 300 nM
